Laboratory results as given in patent US11697648B2, “Fused pyrimidine pyridinone compounds as JAK inhibitors” (THERAVANCE BIOPHARMA R&D IP, LLC, priority 2019, dated 2023).

Key:
JAK1 = JAK1 (Homo sapiens (Human), UniProt P23458); assay: Biochemical JAK1 kinase assay (LanthaScreen)
In short: (§1)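 GST-JAK + GFP-STAT1 peptide, HEPES pH 7.5/MgCl2/EGTA/Brij-35 buffer; cpd preincubation 1 h RT; ATP start, 1 h RT; stop with 10 mM EDTA + 2 nM Tb-anti-pSTAT1; TR-FRET 520/495. 4-parameter IC50 → pKi (Cheng-Prusoff).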

JAK2 = JAK2 (Homo sapiens (Human), UniProt O60674); assay: Biochemical JAK2 kinase assay (LanthaScreen)
Chain of JAK2 (O60674 whole entry): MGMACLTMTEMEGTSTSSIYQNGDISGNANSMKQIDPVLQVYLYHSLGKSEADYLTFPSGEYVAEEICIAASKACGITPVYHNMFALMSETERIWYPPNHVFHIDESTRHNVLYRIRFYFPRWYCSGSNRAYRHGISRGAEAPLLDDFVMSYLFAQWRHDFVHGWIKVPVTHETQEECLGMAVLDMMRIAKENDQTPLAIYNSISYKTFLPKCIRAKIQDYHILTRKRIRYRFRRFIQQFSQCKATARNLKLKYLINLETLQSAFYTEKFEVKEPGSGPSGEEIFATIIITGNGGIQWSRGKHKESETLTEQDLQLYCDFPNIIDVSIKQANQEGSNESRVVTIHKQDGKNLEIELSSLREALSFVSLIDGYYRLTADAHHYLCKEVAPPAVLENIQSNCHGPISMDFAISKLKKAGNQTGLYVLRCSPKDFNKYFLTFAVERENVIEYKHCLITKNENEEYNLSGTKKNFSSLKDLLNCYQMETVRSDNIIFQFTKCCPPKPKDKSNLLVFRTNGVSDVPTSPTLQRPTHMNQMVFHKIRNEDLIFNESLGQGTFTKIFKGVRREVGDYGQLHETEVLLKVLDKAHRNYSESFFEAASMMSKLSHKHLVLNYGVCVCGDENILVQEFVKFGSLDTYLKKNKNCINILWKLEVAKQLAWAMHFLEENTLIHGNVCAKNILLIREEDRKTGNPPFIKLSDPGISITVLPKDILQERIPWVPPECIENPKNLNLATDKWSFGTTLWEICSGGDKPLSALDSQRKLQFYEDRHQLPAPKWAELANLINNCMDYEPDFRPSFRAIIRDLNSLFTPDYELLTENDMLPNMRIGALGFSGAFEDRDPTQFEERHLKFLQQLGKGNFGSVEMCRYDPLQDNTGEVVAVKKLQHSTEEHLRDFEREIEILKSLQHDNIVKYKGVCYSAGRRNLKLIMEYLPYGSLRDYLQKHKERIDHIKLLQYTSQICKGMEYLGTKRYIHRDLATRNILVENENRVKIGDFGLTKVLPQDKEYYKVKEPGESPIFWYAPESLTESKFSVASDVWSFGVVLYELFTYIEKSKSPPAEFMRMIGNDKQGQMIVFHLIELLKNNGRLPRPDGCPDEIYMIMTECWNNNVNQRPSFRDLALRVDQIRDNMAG
In short: as §1

JAK3 = JAK3 (Homo sapiens (Human), UniProt P52333); assay: Biochemical JAK3 kinase assay (LanthaScreen); settings: for JAK3 (pKi)-JAK1 (pKi): selectivity JAK3 over JAK1, difference of pKi
Chain of JAK3 (P52333 whole entry): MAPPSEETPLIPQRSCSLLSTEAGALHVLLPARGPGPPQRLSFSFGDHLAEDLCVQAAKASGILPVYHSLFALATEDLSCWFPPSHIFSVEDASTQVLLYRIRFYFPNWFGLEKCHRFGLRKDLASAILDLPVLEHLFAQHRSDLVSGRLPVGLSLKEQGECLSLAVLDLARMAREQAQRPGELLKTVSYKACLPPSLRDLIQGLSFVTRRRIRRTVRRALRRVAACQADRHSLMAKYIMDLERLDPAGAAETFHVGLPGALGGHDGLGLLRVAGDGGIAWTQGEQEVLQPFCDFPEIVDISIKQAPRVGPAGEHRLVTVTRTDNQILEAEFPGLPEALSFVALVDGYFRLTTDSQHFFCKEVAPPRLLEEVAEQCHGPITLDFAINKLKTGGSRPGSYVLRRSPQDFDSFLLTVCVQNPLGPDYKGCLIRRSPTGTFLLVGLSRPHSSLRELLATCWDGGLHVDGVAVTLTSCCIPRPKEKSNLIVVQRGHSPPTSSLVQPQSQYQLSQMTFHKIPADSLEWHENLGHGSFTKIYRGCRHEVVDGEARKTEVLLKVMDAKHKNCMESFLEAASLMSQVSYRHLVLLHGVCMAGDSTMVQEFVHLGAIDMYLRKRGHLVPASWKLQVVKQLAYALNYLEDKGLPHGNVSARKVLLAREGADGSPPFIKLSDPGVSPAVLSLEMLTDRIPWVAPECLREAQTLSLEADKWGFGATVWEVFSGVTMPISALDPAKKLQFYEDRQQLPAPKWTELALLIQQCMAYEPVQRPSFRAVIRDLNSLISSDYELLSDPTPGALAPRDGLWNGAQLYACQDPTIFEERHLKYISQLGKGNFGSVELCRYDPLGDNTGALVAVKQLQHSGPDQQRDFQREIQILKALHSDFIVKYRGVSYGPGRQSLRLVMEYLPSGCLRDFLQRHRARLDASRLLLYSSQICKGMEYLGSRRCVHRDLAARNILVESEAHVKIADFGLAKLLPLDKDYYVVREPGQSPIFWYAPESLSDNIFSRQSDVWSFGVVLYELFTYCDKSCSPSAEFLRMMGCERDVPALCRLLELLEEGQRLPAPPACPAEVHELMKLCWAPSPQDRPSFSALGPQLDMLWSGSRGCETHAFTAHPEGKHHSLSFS
In short: as §1

Tyk2 = Tyk2 (Homo sapiens (Human), UniProt P29597); assay: Biochemical Tyk2 kinase assay (LanthaScreen)
Chain of Tyk2 (P29597 whole entry): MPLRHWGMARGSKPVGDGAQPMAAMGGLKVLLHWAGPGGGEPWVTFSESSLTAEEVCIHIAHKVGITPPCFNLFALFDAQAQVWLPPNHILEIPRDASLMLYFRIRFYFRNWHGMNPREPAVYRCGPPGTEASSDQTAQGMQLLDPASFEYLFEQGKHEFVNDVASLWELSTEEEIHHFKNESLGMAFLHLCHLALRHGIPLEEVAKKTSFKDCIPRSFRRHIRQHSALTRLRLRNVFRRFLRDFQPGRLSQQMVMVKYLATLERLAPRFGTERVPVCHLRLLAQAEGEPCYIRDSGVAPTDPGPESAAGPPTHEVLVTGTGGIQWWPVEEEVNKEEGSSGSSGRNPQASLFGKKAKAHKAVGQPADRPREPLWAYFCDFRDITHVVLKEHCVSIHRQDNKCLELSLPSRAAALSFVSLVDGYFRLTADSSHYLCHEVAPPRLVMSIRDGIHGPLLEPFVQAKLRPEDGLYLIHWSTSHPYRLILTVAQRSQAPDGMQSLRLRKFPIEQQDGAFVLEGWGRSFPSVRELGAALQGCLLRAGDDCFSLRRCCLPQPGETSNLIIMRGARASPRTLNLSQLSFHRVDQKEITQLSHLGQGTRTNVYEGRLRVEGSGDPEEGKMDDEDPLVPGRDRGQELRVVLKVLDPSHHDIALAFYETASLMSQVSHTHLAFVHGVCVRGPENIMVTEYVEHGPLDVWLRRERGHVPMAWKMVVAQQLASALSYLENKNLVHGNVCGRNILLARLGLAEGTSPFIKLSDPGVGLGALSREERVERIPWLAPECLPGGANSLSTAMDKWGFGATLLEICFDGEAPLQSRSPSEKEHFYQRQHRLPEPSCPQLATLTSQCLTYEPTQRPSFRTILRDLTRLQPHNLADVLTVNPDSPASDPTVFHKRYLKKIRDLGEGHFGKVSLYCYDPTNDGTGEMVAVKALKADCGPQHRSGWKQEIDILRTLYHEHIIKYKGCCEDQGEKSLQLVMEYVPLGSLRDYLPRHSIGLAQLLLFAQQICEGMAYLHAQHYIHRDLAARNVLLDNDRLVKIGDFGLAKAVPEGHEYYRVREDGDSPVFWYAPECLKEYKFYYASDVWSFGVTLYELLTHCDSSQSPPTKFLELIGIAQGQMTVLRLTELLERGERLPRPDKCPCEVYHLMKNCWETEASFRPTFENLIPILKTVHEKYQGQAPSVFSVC
In short: as §1

[1] = system: IL-2 stimulated STAT5 phosphorylation in Tall-1 human T cell line (JAK3); assay: Cellular JAK3 potency assay: inhibition of IL-2 stimulated pSTAT5 in Tall-1 T cells; type: cell-based; settings: IL-2 stimulated pSTAT5, Tall-1 T cells
In short: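 Tall-1 cells, 45,000 per well, preincubated 1 hour with compound at 37 °C, then stimulated 30 minutes with IL-2 at 300 ng/ml final. pSTAT5 (Tyr694/699) in lysates quantified by AlphaLISA SureFire Ultra. pIC50 derived from inhibition curves, given as mean with SD.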

Caco-2 cell monolayers = assay: Caco-2 permeation assay; type: in vitro ADME; settings: 5 μM, A-B direction, with Verapamil (25 μM)
In short: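 Compounds tested at 5 μM in duplicate across Caco-2 monolayers, apical-to-basolateral, with 25 μM verapamil to block P-gp, at 37° C., 5% CO2. Apical and basal samples taken at 0 and 120 min, analysed by LC-MS/MS; Papp (cm/sec) calculated as dQ/(dt×Area×concentration).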

Chain of JAK1 (P23458 whole entry): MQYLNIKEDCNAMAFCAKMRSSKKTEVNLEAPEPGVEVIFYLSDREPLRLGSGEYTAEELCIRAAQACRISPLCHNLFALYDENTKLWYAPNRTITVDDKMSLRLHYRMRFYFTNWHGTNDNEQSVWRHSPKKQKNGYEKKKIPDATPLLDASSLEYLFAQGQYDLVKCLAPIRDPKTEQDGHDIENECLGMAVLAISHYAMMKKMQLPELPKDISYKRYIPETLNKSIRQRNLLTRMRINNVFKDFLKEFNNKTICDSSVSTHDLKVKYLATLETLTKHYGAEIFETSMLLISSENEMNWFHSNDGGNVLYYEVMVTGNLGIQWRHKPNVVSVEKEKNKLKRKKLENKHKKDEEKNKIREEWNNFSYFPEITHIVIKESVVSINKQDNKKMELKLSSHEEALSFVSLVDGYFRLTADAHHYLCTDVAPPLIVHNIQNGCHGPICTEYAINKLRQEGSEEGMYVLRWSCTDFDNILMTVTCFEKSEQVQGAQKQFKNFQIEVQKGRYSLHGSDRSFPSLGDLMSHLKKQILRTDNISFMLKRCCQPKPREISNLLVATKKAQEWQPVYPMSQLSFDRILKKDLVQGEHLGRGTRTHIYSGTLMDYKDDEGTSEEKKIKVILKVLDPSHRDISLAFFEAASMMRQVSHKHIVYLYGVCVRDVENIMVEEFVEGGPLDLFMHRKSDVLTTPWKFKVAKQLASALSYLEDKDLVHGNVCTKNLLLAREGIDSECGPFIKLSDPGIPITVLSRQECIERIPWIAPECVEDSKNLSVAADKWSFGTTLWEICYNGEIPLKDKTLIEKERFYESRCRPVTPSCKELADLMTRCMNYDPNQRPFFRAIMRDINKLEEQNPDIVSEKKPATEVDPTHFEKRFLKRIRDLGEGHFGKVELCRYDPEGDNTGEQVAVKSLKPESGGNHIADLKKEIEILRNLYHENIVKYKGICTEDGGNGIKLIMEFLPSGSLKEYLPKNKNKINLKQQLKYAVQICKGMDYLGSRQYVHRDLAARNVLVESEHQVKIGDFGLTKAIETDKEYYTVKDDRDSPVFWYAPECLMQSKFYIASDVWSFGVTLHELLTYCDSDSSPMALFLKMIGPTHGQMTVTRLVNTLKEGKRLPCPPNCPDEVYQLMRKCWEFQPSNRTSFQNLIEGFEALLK

Row | SMILES | JAK 1 (pKi) (JAK1) | JAK 2 (pKi) (JAK2) | JAK 3 (pKi) (JAK3) | JAK3 (pKi)-JAK1 (pKi) (JAK3) | Tyk 2 (pKi) (Tyk2) | Tall-1 (pIC50) [1] | Caco Kp (Caco-2 cell monolayers)
1 | C=CC(=O)N1CC(CCn2c(=O)ccc3cnc(Nc4ccc(N5CCN(C(=O)C(C)(C)O)CC5)cc4)nc32)C1 [Example 138] | E (E represents a pKi value of 7 or below (Ki of 100 nM or above)) | D (D represents a pKi value between 7 and 8 (Ki between 100 nM and 10 nM)) | A (A represents a pKi value≥10 (Ki≤0.1 nM)) | A (A represents a value of 3 or above) | E (E represents a pKi value of 7 or below (Ki of 100 nM or above)) | B (B represents a pC50 value between 6.7 (included) and 7.5 (IC50 between 200 nM and 32 nM)) | A (A represents a value below 5×10^−6 cm/sec)
2 | C=CC(=O)N1CC(CCn2c(=O)ccc3cnc(Nc4ccc(N5CCN(C(=O)[C@@H](C)O)CC5)cc4)nc32)C1 [Example 105] | E (E represents a pKi value of 7 or below (Ki of 100 nM or above)) | E (E represents a pKi value of 7 or below (Ki of 100 nM or above)) | A (A represents a pKi value≥10 (Ki≤0.1 nM)) | A (A represents a value of 3 or above) | E (E represents a pKi value of 7 or below (Ki of 100 nM or above)) | B (B represents a pC50 value between 6.7 (included) and 7.5 (IC50 between 200 nM and 32 nM)) | A (A represents a value below 5×10^−6 cm/sec)
3 | C=CC(=O)N1CC(CCn2c(=O)ccc3cnc(Nc4cccc(N5CCN(C(=O)OC)CC5)c4)nc32)C1 [Example 123] | E (E represents a pKi value of 7 or below (Ki of 100 nM or above)) | E (E represents a pKi value of 7 or below (Ki of 100 nM or above)) | B (B represents pKi value between 9 and 10 (Ki between 1 nM and 0.1 nM)) | A (A represents a value of 3 or above) | E (E represents a pKi value of 7 or below (Ki of 100 nM or above)) | B (B represents a pC50 value between 6.7 (included) and 7.5 (IC50 between 200 nM and 32 nM)) | C (C represents a value between 10×10^−6 and 30×10^−6 cm/sec)
4 | C=CC(=O)N1CC(CCn2c(=O)ccc3cnc(Nc4cccc(N5CCN(C(=O)COC)CC5)c4)nc32)C1 [Example 108] | E (E represents a pKi value of 7 or below (Ki of 100 nM or above)) | E (E represents a pKi value of 7 or below (Ki of 100 nM or above)) | B (B represents pKi value between 9 and 10 (Ki between 1 nM and 0.1 nM)) | A (A represents a value of 3 or above) | E (E represents a pKi value of 7 or below (Ki of 100 nM or above)) | B (B represents a pC50 value between 6.7 (included) and 7.5 (IC50 between 200 nM and 32 nM)) | A (A represents a value below 5×10^−6 cm/sec)
5 | C=CC(=O)N1CC(CCn2c(=O)ccc3cnc(Nc4ccc(N5CCN(C(C)(C)C)CC5)cc4)nc32)C1 [Example 62] | E (E represents a pKi value of 7 or below (Ki of 100 nM or above)) | E (E represents a pKi value of 7 or below (Ki of 100 nM or above)) | B (B represents pKi value between 9 and 10 (Ki between 1 nM and 0.1 nM)) | A (A represents a value of 3 or above) | E (E represents a pKi value of 7 or below (Ki of 100 nM or above)) | A (A represents a pIC50 value≥7.5 (IC50≤32 nM)) | B (B represents a value between 5×10^−6 and 10×10^−6 cm/sec)
6 | C=CC(=O)N1CC(CCn2c(=O)ccc3cnc(Nc4ccc(N5CCC(C)CC5)cc4)nc32)C1 [Example 142] | E (E represents a pKi value of 7 or below (Ki of 100 nM or above)) | E (E represents a pKi value of 7 or below (Ki of 100 nM or above)) | A (A represents a pKi value≥10 (Ki≤0.1 nM)) | A (A represents a value of 3 or above) | E (E represents a pKi value of 7 or below (Ki of 100 nM or above)) | B (B represents a pC50 value between 6.7 (included) and 7.5 (IC50 between 200 nM and 32 nM)) | C (C represents a value between 10×10^−6 and 30×10^−6 cm/sec)
7 | C=CC(=O)N1CCN(CCn2c(=O)ccc3cnc(Nc4cnn(Cc5ccccc5)c4)nc32)[C@@H](CC)C1 [Example 194] | E (E represents a pKi value of 7 or below (Ki of 100 nM or above)) | E (E represents a pKi value of 7 or below (Ki of 100 nM or above)) | B (B represents pKi value between 9 and 10 (Ki between 1 nM and 0.1 nM)) | A (A represents a value of 3 or above) | E (E represents a pKi value of 7 or below (Ki of 100 nM or above)) | B (B represents a pC50 value between 6.7 (included) and 7.5 (IC50 between 200 nM and 32 nM)) | C (C represents a value between 10×10^−6 and 30×10^−6 cm/sec)
8 | C=CC(=O)N1CC(CCn2c(=O)ccc3cnc(Nc4cccc(N5CCN(S(C)(=O)=O)CC5)c4)nc32)C1 [Example 127] | E (E represents a pKi value of 7 or below (Ki of 100 nM or above)) | E (E represents a pKi value of 7 or below (Ki of 100 nM or above)) | A (A represents a pKi value≥10 (Ki≤0.1 nM)) | A (A represents a value of 3 or above) | E (E represents a pKi value of 7 or below (Ki of 100 nM or above)) | B (B represents a pC50 value between 6.7 (included) and 7.5 (IC50 between 200 nM and 32 nM)) | A (A represents a value below 5×10^−6 cm/sec)
9 | C=CC(=O)N1CCN(CCn2c(=O)ccc3cnc(Nc4ccc(N5CCN(C(=O)N(C)C)CC5)cc4)nc32)[C@@H](CC)C1 [Example 187] | E (E represents a pKi value of 7 or below (Ki of 100 nM or above)) | E (E represents a pKi value of 7 or below (Ki of 100 nM or above)) | B (B represents pKi value between 9 and 10 (Ki between 1 nM and 0.1 nM)) | A (A represents a value of 3 or above) | E (E represents a pKi value of 7 or below (Ki of 100 nM or above)) | B (B represents a pC50 value between 6.7 (included) and 7.5 (IC50 between 200 nM and 32 nM)) | C (C represents a value between 10×10^−6 and 30×10^−6 cm/sec)
10 | C=CC(=O)N1CC(CCn2c(=O)ccc3cnc(Nc4ccc(N5CCN(CCOCC)CC5)cc4)nc32)C1 [Example 117] | E (E represents a pKi value of 7 or below (Ki of 100 nM or above)) | E (E represents a pKi value of 7 or below (Ki of 100 nM or above)) | A (A represents a pKi value≥10 (Ki≤0.1 nM)) | A (A represents a value of 3 or above) | E (E represents a pKi value of 7 or below (Ki of 100 nM or above)) | A (A represents a pIC50 value≥7.5 (IC50≤32 nM)) | C (C represents a value between 10×10^−6 and 30×10^−6 cm/sec)
11 | C=CC(=O)N1CC(CCn2c(=O)ccc3cnc(Nc4cnn(CCF)c4)nc32)C1 [Example 63] | E (E represents a pKi value of 7 or below (Ki of 100 nM or above)) | E (E represents a pKi value of 7 or below (Ki of 100 nM or above)) | B (B represents pKi value between 9 and 10 (Ki between 1 nM and 0.1 nM)) | A (A represents a value of 3 or above) | E (E represents a pKi value of 7 or below (Ki of 100 nM or above)) | B (B represents a pC50 value between 6.7 (included) and 7.5 (IC50 between 200 nM and 32 nM)) | A (A represents a value below 5×10^−6 cm/sec)
12 | C=CC(=O)N1CC(CCn2c(=O)ccc3cnc(Nc4ccc(N5CCN(C(=O)CC[S+](C)[O-])CC5)cc4)nc32)C1 (stereo not shown) [Example 139] | E (E represents a pKi value of 7 or below (Ki of 100 nM or above)) | E (E represents a pKi value of 7 or below (Ki of 100 nM or above)) | A (A represents a pKi value≥10 (Ki≤0.1 nM)) | A (A represents a value of 3 or above) | E (E represents a pKi value of 7 or below (Ki of 100 nM or above)) | C (C represents a pIC50 value between 6 and 6.7 (IC50 between 1 μM and 200 nM)) | A (A represents a value below 5×10^−6 cm/sec)
13 | C=CC(=O)N1CC(CCn2c(=O)ccc3cnc(Nc4ccc(N5CCN(C(C)=O)C[C@H]5C)cc4)nc32)C1 [Example 10, (R)-2-((4-(4-acetyl-2-methylpiperazin-1-yl)phenyl)amino)-8-(2-(1-acryloylazetidin-3-yl)ethyl)pyrido[2,3-d]pyrimidin-7(8H)-one] | E (E represents a pKi value of 7 or below (Ki of 100 nM or above)) | E (E represents a pKi value of 7 or below (Ki of 100 nM or above)) | A (A represents a pKi value≥10 (Ki≤0.1 nM)) | A (A represents a value of 3 or above) | E (E represents a pKi value of 7 or below (Ki of 100 nM or above)) | A (A represents a pIC50 value≥7.5 (IC50≤32 nM)) | A (A represents a value below 5×10^−6 cm/sec)
